Results from PubChem BioAssay AID248 (DTP/NCI, 2004).
Inconclusive results and toxic doses are left out.

System: L1210 leukemia ip in BDF1 mice, survival T/C
Test: NCI In Vivo Anticancer Drug Screen. Data for tumor model L1210 Leukemia (intraperitoneal) in B6D2F1 (BDF1) mice
Settings: endpoint: mean survival time, higher = longer survival
Summary of the method: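 Antitumor effect is assessed in tumor-bearing animals. Survival in the compound arm is compared with a vehicle-dosed control arm and expressed as their quotient.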

[1] = dose: 100.0 mg/kg/injection, schedule: Q01DX009 (ip), vehicle: Klucel (hydroxypropylcellulose) (HPC)
[2] = dose: 200.0 mg/kg/injection, schedule: Q01DX009 (ip), vehicle: Klucel (hydroxypropylcellulose) (HPC)
[3] = dose: 400.0 mg/kg/injection, schedule: Q01DX009 (ip), vehicle: Klucel (hydroxypropylcellulose) (HPC)
[4] = dose: 100.0 mg/kg/injection, schedule: Q04DX003 (ip), vehicle: Klucel (hydroxypropylcellulose) (HPC)
[5] = dose: 200.0 mg/kg/injection, schedule: Q04DX003 (ip), vehicle: Klucel (hydroxypropylcellulose) (HPC)
[6] = dose: 400.0 mg/kg/injection, schedule: Q04DX003 (ip), vehicle: Klucel (hydroxypropylcellulose) (HPC)
[7] = dose: 100.0 mg/kg/injection, schedule: Q04DX003 (ip), vehicle: saline with Tween-80
[8] = dose: 200.0 mg/kg/injection, schedule: Q04DX003 (ip), vehicle: saline with Tween-80
[9] = dose: 400.0 mg/kg/injection, schedule: Q04DX003 (ip), vehicle: saline with Tween-80
[10] = dose: 50.0 mg/kg/injection, schedule: Q04DX003 (ip), vehicle: saline
[11] = dose: 100.0 mg/kg/injection, schedule: Q04DX003 (ip), vehicle: saline
[12] = dose: 200.0 mg/kg/injection, schedule: Q04DX003 (ip), vehicle: saline
[13] = dose: 50.0 mg/kg/injection, schedule: Q01DX009 (ip), vehicle: saline with Tween-80
[14] = dose: 100.0 mg/kg/injection, schedule: Q01DX009 (ip), vehicle: saline with Tween-80
[15] = dose: 25.0 mg/kg/injection, schedule: Q01DX009 (ip), vehicle: saline
[16] = dose: 50.0 mg/kg/injection, schedule: Q01DX009 (ip), vehicle: saline

SMILES: O=C1C=CC(=O)N1CCCN1C(=O)C=CC1=O
- T/C (dose: 2.2 mg/kg/injection, schedule: Q01DX Z (ip), vehicle: methylcellulose (MC)): 94 % of control
- T/C (dose: 3.3 mg/kg/injection, schedule: Q01DX Z (ip), vehicle: methylcellulose (MC)): 88 % of control
- T/C (dose: 5.0 mg/kg/injection, schedule: Q01DX Z (ip), vehicle: methylcellulose (MC)): 96 % of control

SMILES: Cc1cc(Cl)cc(C)c1OC(=O)Nc1ccc(F)cc1
- T/C [1]: 96 % of control
- T/C [2]: 95 % of control
- T/C [3]: 107 % of control

SMILES: Cc1ccc(S(=O)(=O)N2CCOCC2)cc1
- T/C [4]: 98 % of control
- T/C [5]: 100 % of control
- T/C [6]: 108 % of control

SMILES: N#C/C(=C\c1cccnc1)c1ccc(Br)cc1
- T/C (dose: 100.0 mg/kg/injection, schedule: Q01DX009 (ip), vehicle: saline sonified): 98 % of control
- T/C (dose: 200.0 mg/kg/injection, schedule: Q01DX009 (ip), vehicle: saline sonified): 100 % of control
- T/C (dose: 400.0 mg/kg/injection, schedule: Q01DX009 (ip), vehicle: saline sonified): 93 % of control

SMILES: O=[N+]([O-])c1cc2c(cc1Br)-c1ccccc1/C2=N\O
- T/C (dose: 100.0 mg/kg/injection, schedule: Q01DX001 (ip), vehicle: carboxymethylcellulose (CMC)): 103 % of control
- T/C (dose: 200.0 mg/kg/injection, schedule: Q01DX001 (ip), vehicle: carboxymethylcellulose (CMC)): 101 % of control
- T/C (dose: 400.0 mg/kg/injection, schedule: Q01DX001 (ip), vehicle: carboxymethylcellulose (CMC)): 97 % of control

SMILES: NC(=S)N=Nc1c(O)n2c3c(cccc13)CCc1ccccc1-2
- T/C [7]: 92 % of control
- T/C [8]: 96 % of control
- T/C [9]: 94 % of control

SMILES: COC(=O)C/C(=C\c1ccc(OC)c(OC)c1)C(=O)OC
- T/C [1]: 100 % of control
- T/C [4]: 91 % of control
- T/C [2]: 94 % of control
- T/C [5]: 95 % of control
- T/C [3]: 103 % of control
- T/C [6]: 96 % of control

SMILES: CC(=O)Nc1ccc(OC(=O)Nc2c(C)cccc2C)cc1
- T/C [4]: 100 % of control
- T/C [5]: 91 % of control
- T/C [6]: 91 % of control

SMILES: O=C(CNC(=O)c1ccc(C(=O)NCC(=O)Nc2ccc(C3=NCCCN3)cc2)cc1)Nc1ccc(C2=NCCCN2)cc1
- T/C (dose: 0.62 mg/kg/injection, schedule: Q01DX015 (ip), vehicle: methylcellulose (MC)): 101 % of control
- T/C (dose: 1.25 mg/kg/injection, schedule: Q01DX009 (ip), vehicle: saline): 97 % of control
- T/C (dose: 1.25 mg/kg/injection, schedule: Q01DX015 (ip), vehicle: methylcellulose (MC)): 98 % of control
- T/C (dose: 2.5 mg/kg/injection, schedule: Q01DX009 (ip), vehicle: saline): 110 % of control
- T/C (dose: 2.5 mg/kg/injection, schedule: Q01DX015 (ip), vehicle: methylcellulose (MC)): 98 % of control
- T/C (dose: 3.75 mg/kg/injection, schedule: Q01DX015 (ip), vehicle: methylcellulose (MC)): 116 % of control
- T/C (dose: 10.0 mg/kg/injection, schedule: Q01DX009 (ip), vehicle: saline): 113 % of control
- T/C (dose: 20.0 mg/kg/injection, schedule: Q01DX015 (ip), vehicle: methylcellulose (MC)): 229 % of control
- T/C (dose: 25.0 mg/kg/injection, schedule: Q01DX001 (ip), vehicle: methylcellulose (MC)): 106 % of control
- T/C (dose: 30.0 mg/kg/injection, schedule: Q01DX015 (ip), vehicle: methylcellulose (MC)): 186 % of control
- T/C (dose: 40.0 mg/kg/injection, schedule: Q01DX009 (ip), vehicle: saline): 153 % of control
- T/C (dose: 40.0 mg/kg/injection, schedule: Q01DX015 (ip), vehicle: methylcellulose (MC)): 191 % of control
- T/C (dose: 50.0 mg/kg/injection, schedule: Q01DX001 (ip), vehicle: methylcellulose (MC)): 113 % of control
- T/C (dose: 60.0 mg/kg/injection, schedule: Q01DX009 (ip), vehicle: Klucel (hydroxypropylcellulose) (HPC)): 256 % of control
- T/C (dose: 80.0 mg/kg/injection, schedule: Q01DX009 (ip), vehicle: Klucel (hydroxypropylcellulose) (HPC)): 300 % of control
- T/C (dose: 120.0 mg/kg/injection, schedule: Q01DX009 (ip), vehicle: Klucel (hydroxypropylcellulose) (HPC)): 115 % of control
- T/C (dose: 160.0 mg/kg/injection, schedule: Q01DX009 (ip), vehicle: Klucel (hydroxypropylcellulose) (HPC)): 102 % of control

SMILES: O=[N+]([O-])c1ccc(N/N=C(/Cl)c2ccccc2)cc1
- T/C [10]: 101 % of control
- T/C [11]: 98 % of control
- T/C [12]: 96 % of control

SMILES: O=c1ccc2nc3ccccc3sc-2c1
- T/C [7]: 89 % of control

SMILES: O=C1OCC/C1=C/OC(=O)c1ccccc1
- T/C (dose: 100.0 mg/kg/injection, schedule: Q04DX002 (ip), vehicle: Klucel (hydroxypropylcellulose) (HPC)): 97 % of control
- T/C (dose: 200.0 mg/kg/injection, schedule: Q04DX002 (ip), vehicle: Klucel (hydroxypropylcellulose) (HPC)): 87 % of control

SMILES: CC(C)(CCCO)c1ccccc1
- T/C [13]: 96 % of control
- T/C [14]: 104 % of control

SMILES: O=C1C(c2c[nH]c3ccccc23)=Nc2ccc(Br)cc21
- T/C (dose: 50.0 mg/kg/injection, schedule: Q01DX001 (ip), vehicle: saline): 104 % of control
- T/C (dose: 100.0 mg/kg/injection, schedule: Q01DX001 (ip), vehicle: saline): 104 % of control
- T/C (dose: 200.0 mg/kg/injection, schedule: Q01DX001 (ip), vehicle: saline): 106 % of control

SMILES: O=C(Nc1cccc2c1C(=O)c1cccc(Cl)c1C2=O)c1ccccc1
- T/C [7]: 87 % of control
- T/C [8]: 89 % of control
- T/C [9]: 86 % of control

SMILES: CC(CN1CCN(C)CC1)CN1c2ccccc2Sc2ccc(C(F)(F)F)cc21 (centres undefined)
- T/C (dose: 3.12 mg/kg/injection, schedule: Q01DX009 (ip), vehicle: saline): 101 % of control
- T/C (dose: 6.25 mg/kg/injection, schedule: Q01DX009 (ip), vehicle: saline): 106 % of control
- T/C (dose: 12.5 mg/kg/injection, schedule: Q01DX009 (ip), vehicle: saline): 113 % of control
- T/C (dose: 25.0 mg/kg/injection, schedule: Q01DX009 (ip), vehicle: saline with Tween-80): 111 % of control
- T/C [15]: 117 % of control
- T/C (dose: 25.0 mg/kg/injection, schedule: Q04DX003 (ip), vehicle: saline): 101 % of control
- T/C [13]: 111 % of control
- T/C [16]: 98 % of control
- T/C [10]: 113 % of control
- T/C [14]: 96 % of control
- T/C [7]: 107 % of control

SMILES: CCOC(=O)C(C(=O)OCC)=C(C)C
- T/C [14]: 95 % of control
- T/C [7]: 100 % of control
- T/C (dose: 200.0 mg/kg/injection, schedule: Q01DX009 (ip), vehicle: saline with Tween-80): 100 % of control
- T/C [8]: 100 % of control
- T/C (dose: 400.0 mg/kg/injection, schedule: Q01DX009 (ip), vehicle: saline with Tween-80): 102 % of control
- T/C [9]: 106 % of control

SMILES: Cc1ccc(Nc2nc(N)nc(N)c2C=O)cc1
- T/C (dose: 50.0 mg/kg/injection, schedule: Q01DX001 (ip), vehicle: alcohol): 89 % of control
- T/C (dose: 100.0 mg/kg/injection, schedule: Q01DX001 (ip), vehicle: alcohol): 86 % of control
- T/C (dose: 200.0 mg/kg/injection, schedule: Q01DX001 (ip), vehicle: alcohol): 102 % of control
- T/C (dose: 400.0 mg/kg/injection, schedule: Q01DX001 (ip), vehicle: alcohol): 86 % of control

SMILES: COc1cccc(OC)c1C(c1c(OC)cccc1OC)c1c(OC)cccc1OC
- T/C [7]: 95 % of control
- T/C [8]: 91 % of control
- T/C [9]: 101 % of control

SMILES: C#CCN(C)Cc1ccccc1
- T/C [15]: 94 % of control
- T/C [16]: 89 % of control
- T/C (dose: 100.0 mg/kg/injection, schedule: Q01DX009 (ip), vehicle: saline): 87 % of control
- T/C [11]: 103 % of control
- T/C (dose: 200.0 mg/kg/injection, schedule: Q01DX009 (ip), vehicle: saline): 98 % of control
- T/C [12]: 103 % of control
- T/C (dose: 400.0 mg/kg/injection, schedule: Q04DX003 (ip), vehicle: saline): 97 % of control
